Experiments:
[1] = target: T1, Human GPR40 (Homo sapiens, UniProt O14842); assay: Inositol Phosphate Turnover (IP1) Assay 1; assay type: cell-based; set-up: expressed in transfected cells; host or cells: HEK cells stably expressing the aequorin reporter; conditions: HEK cells stably expressing human GPR40, 96-well, 3H-inositol labeling, SPA beads
Description: (§1) Human and mouse GPR40 stable cell-lines were generated in CHO cells stably expressing NFAT BLA (Beta-lactamase). A human GPR40 stable cell-line was generated in HEK cells stably expressing the aequorin expressing reporter. The expression plasmids were transfected using lipofectamine (Life Technologies) following manufacturer's instructions. Stable cell-lines were generated following drug selection.
The assay was performed in 96-well format. HEK cells stably expressing human GPR40 were plated to be 60-80% confluent within 72 h. After 72 h, the plates were aspirated and the cells washed with inositol-free DMEM (ICN). The wash media was replaced with 150 μL of 3H-inositol labeling media (inositol-free media containing 0.4% human albumin or 0.4% mouse albumin, 1× pen/strep antibiotics, glutamine, 25 mM HEPES to which was added 3H-myo-inositol NEN #NET114A 1 mCi/mL, 25 Ci/mmol diluted 1:150 in loading media with a final specific radioactivity of 1 μCi/150 μL). Alternatively, the human and mouse albumin can be added after the overnight labeling step before the addition of LiCl.
The assay was typically run the next day after 18 h labeling. On the day of the assay, 5 μL of 300 mM LiCl was added to all wells and incubated at 37 degrees for 20 min 0.75 μL of 200× compounds were added and incubated with the cells for 60 min at 37 degrees. The media was then aspirated off and the assay terminated with the addition of 60 μL 10 mM formic acid. The cells were lysed for 60 min at room temperature. 15-30 μL of lysate was mixed with 70 μL/1 mg YSi SPA beads (Amersham) in clear bottom Isoplates. The plates were shaken for 2 h at room temperature. Beads were allowed to settle and the plates were counted in the Wallac Microbeta.

[2] = target: T1, Human GPR40; assay: FLIPR assay (agonist-induced calcium mobilization); assay type: cell-based; set-up: expressed in transfected cells; conditions: GPR40/CHO NFAT BLA cells
Description: as §1
FLIPR (Fluorimetric Imaging Plate Reader, Molecular Devices) assays were performed to measure agonist-induced calcium mobilization of the stable clones. For the FLIPR assay, one day before assay, GPR40/CHO NFAT BLA cells were seeded into black-wall-clear-bottom 384-well plates (Costar) at 1.4×10e4 cells/20 μL medium/well. The cells were incubated with 20 μl/well of the assay buffer (HBSS, 0.1% BSA, 20 mM HEPES, 2.5 mM probenecid, pH 7.4) containing 8 μM fluo-4, AM, 0.08% pluronic acid at room temperature for 100 minutes. Fluorescence output was measured using FLIPR. Compounds were dissolved in DMSO and diluted to desired concentrations with assay buffer. 13.3 μL/well of compound solution was added.

T1 sequence (O14842 whole entry): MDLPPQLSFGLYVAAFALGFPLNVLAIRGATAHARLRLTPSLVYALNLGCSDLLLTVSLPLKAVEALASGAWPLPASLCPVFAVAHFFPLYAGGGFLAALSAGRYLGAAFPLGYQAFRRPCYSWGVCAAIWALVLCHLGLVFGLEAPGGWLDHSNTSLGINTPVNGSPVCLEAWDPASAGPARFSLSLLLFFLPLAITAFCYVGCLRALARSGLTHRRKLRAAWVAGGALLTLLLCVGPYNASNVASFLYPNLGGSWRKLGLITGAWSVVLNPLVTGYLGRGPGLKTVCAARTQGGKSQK

SMILES	EC50 [1]	EC50 [2]
CC(C)(O)CCOc1cc(F)c(-c2cc(COc3cc4c(cn3)[C@H]3[C@@H](C4)[C@@H]3C(=O)O)c(F)cc2C(F)(F)F)c(F)c1 [Example 10, (5aR,6S,6aS)-3-((2′,4,6′-trifluoro-4′-(3-hydroxy-3-methylbutoxy)-6-(trifluoromethyl)-[1,1′-biphenyl]-3-yl)methoxy)-5,5a,6,6a-tetrahydrocyclo-propa[4,5]cyclopenta [1,2-c]pyridine-6-carboxylic acid]	27.2 nM	6.4 nM
Cc1cc(OCCCS(C)(=O)=O)ccc1-c1cc(COc2cc3c(cn2)[C@H]2[C@@H](C3)[C@@H]2C(=O)O)c(F)cc1C(F)(F)F [Example 2, (5aR,6S,6aS)-3-((4-fluoro-2′-methyl-4′-(3-(methyl-sulfonyl)-propoxy)-6-(tri-fluoromethyl)-[1,1′-biphenyl]-3-yl)methoxy)-5,5a,6,6a-tetrahydrocyclo-propa[4,5]cyclopenta [1,2-c]pyridine-6-carboxylic acid]	2.98 nM	5.75 nM
Cc1cc(OCCC(C)(C)O)ccc1-c1cc(COc2cc3c(cn2)[C@H]2[C@@H](C3)[C@@H]2C(=O)O)c(F)cc1C(F)F [Example 4, (5aR,6S,6aS)-3-((6-(difluoro-methyl)-4-fluoro-4′-(3-hydroxy-3-methyl-butoxy)-2′-methyl-[1,1′-biphenyl]-3-yl)methoxy)-5,5a,6,6a-tetrahydrocyclo-propa[4,5] cyclopenta[1,2-c] pyridine-6-carboxylic acid]	5.25 nM	14.4 nM
CC(C)(O)CCOc1ccc(-c2cc(COc3cc4c(cn3)[C@H]3[C@@H](C4)[C@@H]3C(=O)O)c(F)cc2C(F)(F)F)c(F)c1 [Example 7, (5aR,6S,6aS)-3-((2′,4-difluoro-4′-(3-hydroxy-3-methylbutoxy)-6-(trifluoro-methyl)-[1,1′-biphenyl]-3-yl)methoxy)-5,5a,6,6a-tetrahydrocyclopropa [4,5]cyclopenta[1,2-c] pyridine-6-carboxylic acid]	11.4 nM	11.2 nM
Cc1nc(OCCC(C)(O)C(F)F)ccc1-c1cc(COc2cc3c(cn2)[C@H]2[C@@H](C3)[C@@H]2C(=O)O)c(F)cc1C(F)(F)F (stereo partly drawn) [Example 16, (5aR,6S,6aS)-3-((5-(6-(4,4-difluoro-3-hydroxy-3-methyl-butoxy)-2-methyl-pyridin-3-yl)-2-fluoro-4-(trifluoro-methyl)-benzyl)-oxy)-5,5a,6,6a-tetrahydro-cyclo-propa[4,5]cyclopenta [1,2-c]pyridine-6-carboxylic acid]	10.4 nM	
CC(O)(CCOc1ccc(-c2cc(COc3cc4c(cn3)[C@H]3[C@@H](C4)[C@@H]3C(=O)O)c(F)cc2C(F)(F)F)cc1)C(F)F (stereo partly drawn) [Example 12, (5aR,6S,6aS)-3-((4′-(4,4-difluoro-3-hydroxy-3-methylbutoxy)-4-fluoro-6-(trifluoromethyl)-[1,1′-biphenyl]-3-yl)methoxy)-5,5a,6,6a-tetrahydrocyclopropa[4,5]cyclopenta[1,2-c]pyridine-6-carboxylic acid]	20.3 nM	12.5 nM
CS(=O)(=O)CCCOc1ccc(-c2cc(COc3cc4c(cn3)[C@H]3[C@@H](C4)[C@@H]3C(=O)O)c(F)cc2C(F)(F)F)c(F)c1 [Example 8, (5aR,6S,6aS)-3-((2′,4-difluoro-4′-(3-(methyl-sulfonyl)-propoxy)-6-(trifluoromethyl)-[1,1′-biphenyl]-3-yl)methoxy)-5,5a,6,6a-tetrahydro-cyclopropa[4,5]cyclo-penta[1,2-c]pyridine-6-carboxylic acid]	6.54 nM	9.2 nM
CC(C)(O)CCOc1ccc(-c2cc(COc3cc4c(cn3)[C@H]3[C@@H](C4)[C@@H]3C(=O)O)c(F)cc2C(F)(F)F)cc1F [Example 6, (5aR,6S,6aS)-3-((3′,4-difluoro-4′-(3-hydroxy-3-methyl-butoxy)-6-(trifluoro-methyl)-[1,1′-biphenyl]-3-yl)methoxy)-5,5a,6,6a-tetrahydrocyclopropa [4,5]cyclopenta[1,2-c] pyridine-6-carboxylic acid]	14.7 nM	10.9 nM
Cc1cc(OCCC(O)C(C)(C)O)cc(C)c1-c1cc(COc2cc3c(cn2)[C@H]2[C@@H](C3)[C@@H]2C(=O)O)c(F)cc1F (stereo partly drawn) [Example 18, (5aR,6S,6aS)-3-((4′-((3,4-dihydroxy-4-methylpentyl)oxy)-4,6-difluoro-2′,6′-dimethyl-[1,1′-biphenyl]-3-yl)methoxy)-5,5a,6,6a-tetrahydrocycloprop[4,5]cyclopenta[1,2-c]pyridine-6-carboxylic acid]	19.2 nM	
CC(C)(O)CCOc1ccc(-c2cc(COc3cc4c(cn3)[C@H]3[C@@H](C4)[C@@H]3C(=O)O)c(F)cc2C(F)F)cc1F [Example 11, (5aR,6S,6aS)-3-((6-(di-fluoro-methyl)-3',4-di-fluoro-4'-(3-hydroxy-3-methyl-butoxy)-[1,1'-biphenyl]-3-yl)methoxy)-5,5a,6,6a-tetrahydro-cyclopropa[4,5]cyclo-penta[1,2-c]pyridine-6-carboxylic acid]	17.6 nM	16.7 nM
O=C(O)[C@H]1[C@@H]2Cc3cc(OCc4cc(-c5c(F)cc(OCCC6(O)COC6)cc5F)c(C(F)(F)F)cc4F)ncc3[C@@H]21 [Example 9, (5aR,6S,6aS)-3-((2′,4,6′-trifluoro-4′-(2-(3-hydroxy-oxetan-3-yl)ethoxy)-6-(trifluoromethyl)-[1,1′-biphenyl]-3-yl)methoxy)-5,5a,6,6a-tetrahydrocyclopropa [4,5]cyclopenta[1,2-c]pyridine-6-carboxylic acid]	11.1 nM	6.89 nM
CC(C)(O)CCOc1ccc(-c2cc(COc3cc4c(cn3)[C@H]3[C@@H](C4)[C@@H]3C(=O)O)c(F)cc2C(F)(F)F)cc1 [Example 5, (5aR,6S,6aS)-3-((4-fluoro-4′-(3-hydroxy-3-methylbutoxy)-6-(trifluoromethyl)-[1,1′-biphenyl]-3-yl)methoxy)-5,5a,6,6a-tetrahydrocyclopropa[4,5]cyclopenta[1,2-c]pyridine-6-carboxylic acid]	6.24 nM	24.9 nM
CC(C)(O)CCOc1ncc(-c2cc(COc3cc4c(cn3)[C@H]3[C@@H](C4)[C@@H]3C(=O)O)c(F)cc2C(F)(F)F)cc1F [Example 15, (5aR,6S,6aS)-3-((2-fluoro-5-(5-fluoro-6-(3-hydroxy-3-methylbutoxy)pyridin-3-yl)-4-(trifluoromethyl)benzyl)oxy)-5,5a,6,6a-tetrahydrocyclopropa[4,5]cyclopenta[1,2-c]pyridine-6-carboxylic acid]	7.97 nM	4.88 nM
Cc1cc(OCCC(C)(C)O)ccc1-c1cc(COc2cc3c(cn2)[C@H]2[C@@H](C3)[C@@H]2C(=O)O)c(F)cc1C(F)(F)F [Example 1]	9.89 nM	16.7 nM
Cc1cc(OCCC2(O)COC2)ccc1-c1cc(COc2cc3c(cn2)[C@H]2[C@@H](C3)[C@@H]2C(=O)O)c(F)cc1C(F)(F)F [Example 14, (5aR,6S,6aS)-3-((4-fluoro-4′-(2-(3-hydroxyoxetan-3-yl)ethoxy)-2′-methyl-6-(trifluoromethyl)-[1,1′-biphenyl]-3-yl)methoxy)-5,5a,6,6a-tetrahydrocyclopropa[4,5]cyclopenta[1,2-c]pyridine-6-carboxylic acid]	5.54 nM	10.4 nM
CC(C)(O)CCOc1ccc(-c2cc(COc3cc4c(cn3)[C@H]3[C@@H](C4)[C@@H]3C(=O)O)c(F)cc2C(F)(F)F)c(C(F)F)c1 [Example 13, (5aR,6S,6aS)-3-((2'-(difluoromethyl)-4-fluoro-4'-(3-hydroxy-3-methyl-butoxy)-6-(trifluoromethyl)-[1,1'-biphenyl]-3-yl)-methoxy)-5,5a,6,6a-tetra-hydrocyclo-propa[4,5]cyclopenta [1,2-c]pyridine-6-carboxylic acid]	5.94 nM	9.66 nM
Cc1nc(OCCC(C)(C)O)ccc1-c1cc(COc2cc3c(cn2)[C@H]2[C@@H](C3)[C@@H]2C(=O)O)c(F)cc1C(F)(F)F [Example 3, (5aR,6S,6aS)-3-((2-fluoro-5-(6-(3-hydroxy-3-methyl-butoxy)-2-methyl-pyridin-3-yl)-4-(trifluoromethyl)-benzyl)-oxy)-5,5a, 6,6a-tetrahydro-cyclopropa[4,5] cyclopenta[1,2-c] pyridine-6-carboxylic acid]	4.95 nM	1.52 nM

Source: patent publication US9932311B2, “Antidiabetic tricyclic compounds” (Merck Sharp & Dohme Corp., priority 2013, dated 2018)
